Assays:
[1] = molecular target: T1, purified porcine brain tubulin (Sus scrofa, UniProt P02554); assay: Biolayer interferometry (BLI) binding to tubulin; settings: immobilized tubulin, 1:1 binding model, mean ± SD, triplicate
T1 construct: purified porcine brain tubulin; from tissue; host or cells: porcine brain
Procedure: To detect the direct interaction between the synthesized compounds and tubulin, biolayer interferometry (BLI) experiments were performed using purified porcine brain tubulin immobilized on Super Streptavidin (SSA) biosensor [30]. […] Association and dissociation kinetics were monitored in real time, and equilibrium dissociation constants (KD) were determined by global fitting of the sensorgrams to a 1:1 binding model. All measurements were conducted in triplicate, and results are reported as mean ± SD.
BLI assays were performed on an Octet RED96 instrument (FortéBio, Pall Life Sciences, Menlo Park, CA, USA) at 25 °C in PBS buffer supplemented with 0.02% (v/v) Tween-20 as the running buffer. Biotinylated tubulin proteins (3 μg/mL) were immobilized onto Super Streptavidin (SSA) biosensors. Association and dissociation were monitored for 60 s each. […] Reference subtraction was performed using sensors incubated in running buffer without protein loading to correct for baseline drift. Data were analyzed using Octet Data Analysis software (version 9.0), and equilibrium dissociation constants (KD) were determined by fitting the curves to a 1:1 binding model. All measurements were performed in triplicate, and results are reported as mean ± SD.
BLI assays were performed on an Octet RED96 instrument (FortéBio, Pall Life Sciences) at 25 °C in PBS buffer supplemented with 0.02% (v/v) Tween-20 as the running buffer. Biotinylated tubulin proteins (3 μg/mL) were immobilized onto Super Streptavidin (SSA) biosensors. Association and dissociation were monitored for 60 s […]
Reference subtraction was performed using sensors incubated in running buffer without protein loading to correct for baseline drift. Data were analyzed using Octet Data Analysis software (version 9.0), and equilibrium dissociation constants (KD) were determined by fitting the curves to a 1:1 binding model. All measurements were performed in triplicate, and results are reported as mean ± SD.

MCF-7 cells = assay: CCK-8 antiproliferative assay, MCF-7; assay type: cell-based; settings: Homo sapiens, MCF7; cell viability (CCK-8), 48 h
Procedure: (§1) To evaluate the anticancer potential of the synthesized compounds, a panel of six human and murine cancer cell lines representing different tissue origins was selected, including MCF-7 (human breast adenocarcinoma), MDA-MB-231 (human triple-negative breast cancer), A549 (human non-small cell lung cancer), HeLa (human cervical cancer), A375 (human melanoma), and B16-F10 (murine melanoma) (Table 2). […] DMSO was used as the vehicle control, and all experiments were performed in triplicate to ensure reproducibility.
(§2) Human breast cancer cells (MCF-7), human lung cancer cells (A549), human cervical cancer cells (HeLa), human triple-negative breast cancer cells (MDA-MB-231), and human malignant melanoma cells (A375) were cultured in DMEM. Mouse melanoma cells (B16F10) were maintained in RPMI-1640 medium. All media were supplemented with 10% fetal bovine serum and 1% penicillin-streptomycin (Life Technologies, Carlsbad, CA, USA) and maintained at 37 °C in a humidified atmosphere with 5% CO2.
(§3) The cytotoxicity of the test compounds was evaluated against MCF-7, A549, HeLa, MDA-MB-231, A375, and B16F10 using the CCK-8 assay. Cells were seeded into 96-well plates at a density of 5000 cells/well. After removing the medium, 100 μL of medium with 0.1% DMSO containing test compounds at different concentrations was added to each well and incubated at 37 °C for another 48 h. The CCK-8 solution was added and incubated for another 1 h, and then, the absorbance was detected with a microplate reader at a wavelength of 450 nm. The IC50 values were calculated by nonlinear regression analysis using GraphPad Prism 8.0.2. All the experiments were repeated at least three times.

MDA-MB-231 cells = assay: CCK-8 antiproliferative assay, MDA-MB-231; assay type: cell-based; settings: Homo sapiens, cell viability (CCK-8), 48 h
Procedure: as §1, §2, §3

A549 cells = assay: CCK-8 antiproliferative assay, A549; assay type: cell-based; settings: Homo sapiens, cell viability (CCK-8), 48 h
Procedure: as §1, §2, §3

HeLa cells = assay: CCK-8 antiproliferative assay, HeLa; assay type: cell-based; settings: Homo sapiens, cell viability (CCK-8), 48 h
Procedure: as §1, §2, §3

A375 cells = assay: CCK-8 antiproliferative assay, A375; assay type: cell-based; settings: Homo sapiens, A-375; cell viability (CCK-8), 48 h
Procedure: as §1, §2, §3

B16-F10 cells = assay: CCK-8 antiproliferative assay, B16-F10; assay type: cell-based, murine; settings: Mus musculus, cell viability (CCK-8), 48 h
Procedure: as §1, §2, §3

T1 sequence (P02554 whole entry): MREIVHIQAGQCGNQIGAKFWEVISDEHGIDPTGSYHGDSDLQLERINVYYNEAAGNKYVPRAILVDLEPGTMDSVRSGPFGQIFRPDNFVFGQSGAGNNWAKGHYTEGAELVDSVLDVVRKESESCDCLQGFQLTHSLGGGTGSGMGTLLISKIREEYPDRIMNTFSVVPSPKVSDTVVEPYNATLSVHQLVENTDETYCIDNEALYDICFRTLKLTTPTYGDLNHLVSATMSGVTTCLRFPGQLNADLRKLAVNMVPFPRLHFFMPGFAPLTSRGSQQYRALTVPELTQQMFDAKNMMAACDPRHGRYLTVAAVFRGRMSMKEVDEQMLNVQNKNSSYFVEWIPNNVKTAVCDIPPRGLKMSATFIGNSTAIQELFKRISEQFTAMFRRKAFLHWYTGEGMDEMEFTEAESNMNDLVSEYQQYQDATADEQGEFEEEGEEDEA
T1 sequence (P02550 whole entry partner): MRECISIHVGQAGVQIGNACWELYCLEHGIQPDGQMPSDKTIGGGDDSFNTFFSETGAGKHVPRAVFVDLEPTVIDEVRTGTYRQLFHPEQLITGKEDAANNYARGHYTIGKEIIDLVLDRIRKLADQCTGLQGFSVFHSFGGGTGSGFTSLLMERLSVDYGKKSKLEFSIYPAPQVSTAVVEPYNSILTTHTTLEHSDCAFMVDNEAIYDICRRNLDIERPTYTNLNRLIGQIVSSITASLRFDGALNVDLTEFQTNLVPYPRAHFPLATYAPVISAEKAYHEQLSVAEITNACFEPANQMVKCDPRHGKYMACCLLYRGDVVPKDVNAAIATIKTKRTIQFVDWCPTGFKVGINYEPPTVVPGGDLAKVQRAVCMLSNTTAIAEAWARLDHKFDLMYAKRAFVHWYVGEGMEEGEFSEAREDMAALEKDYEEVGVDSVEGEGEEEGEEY

Row | SMILES | Kd [1] [µM] | IC50 (MCF-7 cells) [µM] | IC50 (MDA-MB-231 cells) [µM] | IC50 (A549 cells) [µM] | IC50 (HeLa cells) [µM] | IC50 (A375 cells) [µM] | IC50 (B16-F10 cells) [µM] | KD [1]
1 | COc1cc(-n2ccc3ccc(-c4ccccc4)cc32)cc(OC)c1OC [3a, 6-phenyl-1-(3,4,5-trimethoxyphenyl)-1H-indole] | 39 ± 2.6 | 10.1 ± 0.68 | 78.92 ± 0.57 | 36.6 ± 1.78 | > 100 | 1.16 ± 0.12 | 45.4 ± 1.11 | 
2 | COc1cc(-n2ccc3ccc(-c4cccc(C#N)c4)cc32)cc(OC)c1OC [3b, 3-(1-(3,4,5-trimethoxyphenyl)-1H-indol-6-yl)benzonitrile] | 29 ± 4.1 | 3.33 ± 0.28 | 42.9 ± 3.13 | 41.2 ± 3.42 | 38.5 ± 2.25 | 27.5 ± 2.5 | 3.78 ± 0.14 | low micromolar range
3 | COc1cc(-n2ccc3ccc(-c4cccc(C)c4)cc32)cc(OC)c1OC [3c, 6-(m-tolyl)-1-(3,4,5-trimethoxyphenyl)-1H-indole] | 23 ± 2.12 | 9.15 ± 0.21 | 37.7 ± 0.89 | 92.4 ± 8.58 | 66.5 ± 6.21 | 53.2 ± 4.06 | 59.2 ± 5.86 | low micromolar range
4 | CCc1ccccc1-c1ccc2ccn(-c3cc(OC)c(OC)c(OC)c3)c2c1 [3d, 6-(2-ethylphenyl)-1-(3,4,5-trimethoxyphenyl)-1H-indole] | 24 ± 2.13 | 34.2 ± 1.62 | 23.4 ± 0.44 | 60.2 ± 4.17 | 46.6 ± 3.65 | 24.84 ± 0.16 | 6.49 ± 0.4 | low micromolar range
5 | CCc1ccc(-c2ccc3ccn(-c4cc(OC)c(OC)c(OC)c4)c3c2)cc1 [3e, 6-(4-ethylphenyl)-1-(3,4,5-trimethoxyphenyl)-1H-indole] | 110 ± 14.5 | > 100 | > 100 | > 100 | > 100 | > 100 | > 100 | 
6 | COc1cc(-n2ccc3ccc(-c4ccccc4C(C)C)cc32)cc(OC)c1OC [3f, 6-(2-isopropylphenyl)-1-(3,4,5-trimethoxyphenyl)-1H-indole] | 47 ± 5.62 | 17.4 ± 0.35 | 21.37 ± 0.12 | 87.4 ± 3.45 | 41.8 ± 1.11 | 21.1 ± 1.17 | 6.67 ± 0.29 | 
7 | COc1cc(-n2ccc3ccc(-c4cccc(OC(F)(F)F)c4)cc32)cc(OC)c1OC [3h, 6-(3-(trifluoromethoxy)phenyl)-1-(3,4,5-trimethoxyphenyl)-1H-indole] | > 200 | > 100 | > 100 | > 100 | > 100 | > 100 | > 100 | undetectable binding
8 | CCCCc1ccc(-c2ccc3ccn(-c4cc(OC)c(OC)c(OC)c4)c3c2)cc1 [3i, 6-(4-butylphenyl)-1-(3,4,5-trimethoxyphenyl)-1H-indole] | > 200 | > 100 | > 100 | > 100 | > 100 | > 100 | > 100 | undetectable binding
